Measurements from the NIST ThermoML archive (doi:10.1016/j.tca.2011.02.016).
± gives the expanded uncertainty stated by the source.

How the values were obtained:
[1] = 298.15 K; 101.33 kPa; Liquid; Pycnometric method
[2] = molar heat capacity at constant pressure; settings: 298.15 K; 101.33 kPa; Liquid; Small sample (50 mg) DSC

Cn1cc[n+](CCO)c1.N#C[N-]C#N [3-(2-hydroxyethyl)-1-methyl-1H-imidazol-3-ium dicyanoazanide]
mass density [1]: 1120 ± 10 kg/m3 | molar heat capacity at constant pressure [2]: 231.85 ± 3.9 J/K/mol
